pEC50: −log10 of the molar value.
Molecular target: T1, Kv7.2 (Homo sapiens, UniProt O43526)
T1 construct: expressed in transfected cells
Assay: Activation of Kv7.2 (in vitro assay, concentration response curve)
Assay type: cell-based
Details: for Emax: Kv7.2 activation max %; for pEC50: activation of Kv7.2
How it was run: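 EC50 is the half-maximal effective concentration, relative to the Emax observed for each compound in this in vitro assay. It was derived from concentration–response curves of the agonistic effect measured over a series of concentrations.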

Compound | Emax [%] | pEC50
O=C(NCc1ccnc(OC(F)F)c1)NC1(C(F)(F)F)CC1 [Example 175, 1-[[2-(difluoromethoxy)pyridin-4-yl]methyl]-3-[I-(trifluoromethyl)cyclopropyl]urea] | 50 | 5.08
O=C(NCc1ccnc(OC(F)F)c1)NC1(C23CC(F)(C2)C3)CC1 [Example 177, 1-[[2-(difluoromethoxy)pyridin-4-yl]methyl]-3-[1-(3-fluoro-1-bicyclo[1.1.1]pentanyl)cyclopropyl]urea] | 43 | 5.85
O=C(NCc1ccnc(OC(F)F)c1)NC12CC(C(F)(F)F)(C1)C2 [Example 178, 1-[[2-(difluoromethoxy)pyridin-4-yl]methyl]-3-[3-(trifluoromethyl)-1-bicyclo[1.1.1]pentanyl]urea] | 62 | 5.73
O=C(NCc1ccnc(OCC(F)(F)F)c1)N[C@H]1C[C@H](C(F)(F)F)C1 [Example 179, 1-[[2-(2,2,2-trifluoroethoxy)pyridin-4-yl]methyl]-3-[(1r,3r)-3-(trifluoromethyl)cyclobutyl]urea] | 48 | 7.70
O=C(NCc1ccnc(OCC(F)(F)F)c1)NC12CCC(F)(CC1)CC2 [Example 180, 1-(4-fluoro-1-bicyclo[2.2.2]octanyl)-3-[[2-(2,2,2-trifluoroethoxy)pyridin-4-yl]methyl]urea] | 72 | 6.51
O=C(NCc1ccnc(OC(F)F)c1)NCC1CC(F)(F)C1 [Example 181, 1-[(3,3-difluorocyclobutyl)methyl]-3-[[2-(difluoromethoxy)pyridin-4-yl]methyl]urea] | 41 | 6.18
CC12CC(NC(=O)NCc3ccnc(OC(F)F)c3)(C1)C2 [Example 182, 1-[[2-(difluoromethoxy)pyridin-4-yl]methyl]-3-(3-methyl-1-bicyclo[1.1.1]pentanyl)urea] | 63 | 7.05
CC(F)COc1cc(CNC(=O)N[C@H]2C[C@H](C(F)(F)F)C2)ccn1 (stereo partly shown) [Example 183, 1-[[2-(2-fluoropropoxy)pyridin-4-yl]methyl]-3-[(1r,3r)-3-(trifluoromethyl)cyclobutyl]urea] | 58 | 6.59
C[C@]1(O)CCC[C@@H]1NC(=O)NCc1ccnc(OC(F)F)c1 [Example 184, 1-[[2-(difluoromethoxy)pyridin-4-yl]methyl]-3-[(1S,2S)-2-hydroxy-2-methylcyclopentyl]urea] | 55 | 5.74
O=C(NC(CO)c1ccnc(OCC(F)(F)F)c1)N[C@H]1C[C@H](C(F)(F)F)C1 (stereo partly shown) [Example 185, 1-[2-hydroxy-1-[2-(2,2,2-trifluoroethoxy)pyridin-4-yl]ethyl]-3-[(1r,3r)-3-(trifluoromethyl)cyclobutyl]urea] | 84 | 6.42
O=C(NCc1ccnc(OC(F)F)c1)Nc1ccc(F)c(F)c1 [Example 186, 1-[[2-(difluoromethoxy)pyridin-4-yl]methyl]-3-(3,4-difluorophenyl)urea] | 62 | 6.26
CC1(C)CC(NC(=O)NCc2ccnc(OC(F)F)c2)C1 [Example 188, 1-[[2-(difluoromethoxy)pyridin-4-yl]methyl]-3-(3,3-dimethylcyclobutyl)urea] | 82 | 7.30
O=C(NCc1ccnc(OC(F)F)c1)N[C@H]1C[C@@H]2[C@H](C1)C2(F)F [Example 189, 1-[[2-(difluoromethoxy)pyridin-4-yl]methyl]-3-[(1R,3r,5S)-6,6-difluoro-3-bicyclo[3.1.0]hexanyl]urea] | 74 | 6.89
O=C(NCc1ccnc(OC(F)F)c1)N[C@@H]1C[C@H]2CCC[C@H]2C1 [Example 190, 1-[[2-(difluoromethoxy)pyridin-4-yl]methyl]-3-[(2s,3aR,6aS)-1,2,3,3a,4,5,6,6a-octahydropentalen-2-yl]urea] | 85 | 7.52
O=C(NCc1ccnc(OC(F)F)c1)NCC1(C(F)F)CCC1 [Example 191, 1-[[2-(difluoromethoxy)pyridin-4-yl]methyl]-3-[[1-(difluoromethyl)cyclobutyl]methyl]urea] | 68 | 6.35
O=C(NCc1ccnc(OC(F)F)c1)NC1COc2ccccc2C1 (stereo not shown) [Example 192, 1-[[2-(difluoromethoxy)pyridin-4-yl]methyl]-3-(3,4-dihydro-2H-chromen-3-yl)urea] | 51 | 6.62
C[C@]1(NC(=O)NCc2ccnc(OC(F)F)c2)C[C@@H](C(F)(F)F)C1 [Example 194, 1-[[2-(difluoromethoxy)pyridin-4-yl]methyl]-3-[(1r,3r)-1-methyl-3-(trifluoromethyl)cyclobutyl]urea] | 40 | 5.81
O=C(NCc1ccnc(OC(F)F)c1)N[C@H]1C[C@@H]2CC(F)(F)C[C@@H]2C1 [Example 195, 1-[[2-(difluoromethoxy)pyridin-4-yl]methyl]-3-[(2r,3aR,6aS)-5,5-difluoro-2,3,3a,4,6,6a-hexahydro-1H-pentalen-2-yl]urea] | 51 | 6.54
O=C(NCc1ccnc(OC(F)F)c1)N[C@H]1C[C@@H](C(F)(F)F)C1 [Example 198, 1-[[2-(difluoromethoxy)pyridin-4-yl]methyl]-3-[(1s,3s)-3-(trifluoromethyl)cyclobutyl]urea] | 65 | 6.40
C[C@@H](F)COc1cc(CNC(=O)N[C@H]2C[C@H](C(F)(F)F)C2)ccn1 [Example 199, 1-[[2-[(2R)-2-fluoropropoxy]pyridin-4-yl]methyl]-3-[(1r,3r)-3-(trifluoromethyl)cyclobutyl]urea] | 52 | 6.54
CC(F)(F)c1cc(CNC(=O)NC23CC(F)(C2)C3)ccn1 [Example 200, 1-[[2-(1,1-difluoroethyl)pyridin-4-yl]methyl]-3-(3-fluoro-1-bicyclo[1.1.1]pentanyl)urea] | 54 | 5.31
CC(F)(F)COc1cc(CNC(=O)NC23CC(F)(C2)C3)ccn1 [Example 201, 1-[[2-(2,2-difluoropropoxy)pyridin-4-yl]methyl]-3-(3-fluoro-1-bicyclo[1.1.1]pentanyl)urea] | 60 | 6.68
C[C@H](F)COc1cc(CNC(=O)N[C@H]2C[C@H](C(F)(F)F)C2)ccn1 [Example 202, 1-[[2-[(2S)-2-fluoropropoxy]pyridin-4-yl]methyl]-3-[(1r,3r)-3-(trifluoromethyl)cyclobutyl]urea] | 57 | 6.59
O=C(NCc1ccnc(OCC(F)(F)F)n1)Nc1cccc(Cl)c1 [Example 203, 1-(3-chlorophenyl)-3-[[2-(2,2,2-trifluoroethoxy)pyrimidin-4-yl]methyl]urea] | 42 | 6.68
O=C(NCc1ccnc(OCC(F)(F)F)n1)N[C@H]1C[C@H](C(F)(F)F)C1 [Example 204, 1-[[2-(2,2,2-trifluoroethoxy)pyrimidin-4-yl]methyl]-3-[(1r,3r)-3-(trifluoromethyl)cyclobutyl]urea] | 45 | 6.47
Cc1cc(NC(=O)NC(CO)c2ccnc(OCC(F)(F)F)c2)ccc1F (stereo not shown) [Example 205, 1-(4-fluoro-3-methylphenyl)-3-[2-hydroxy-1-[2-(2,2,2-trifluoroethoxy)pyridin-4-yl]ethyl]urea] | 64 | 6.62
